The source of these data is patent US7202243B2, “Substituted imidazotriazines” (Bayer HealthCare AG, priority 2002, dated 2007).

Each structure is given as a SMILES string. pIC50: −log10 of the molar value.

In the assay the target is T1, PDE 10A (Homo sapiens, UniProt Q9Y233).
T1 construct: is expressed recombinantly in full length in Sf9 insect cells; made in house; host or cells: Sf9 insect cells, Bac-to-Bac baculovirus expression system
T1 sequence (Q9Y233 1-779 isoform Q9Y233-1): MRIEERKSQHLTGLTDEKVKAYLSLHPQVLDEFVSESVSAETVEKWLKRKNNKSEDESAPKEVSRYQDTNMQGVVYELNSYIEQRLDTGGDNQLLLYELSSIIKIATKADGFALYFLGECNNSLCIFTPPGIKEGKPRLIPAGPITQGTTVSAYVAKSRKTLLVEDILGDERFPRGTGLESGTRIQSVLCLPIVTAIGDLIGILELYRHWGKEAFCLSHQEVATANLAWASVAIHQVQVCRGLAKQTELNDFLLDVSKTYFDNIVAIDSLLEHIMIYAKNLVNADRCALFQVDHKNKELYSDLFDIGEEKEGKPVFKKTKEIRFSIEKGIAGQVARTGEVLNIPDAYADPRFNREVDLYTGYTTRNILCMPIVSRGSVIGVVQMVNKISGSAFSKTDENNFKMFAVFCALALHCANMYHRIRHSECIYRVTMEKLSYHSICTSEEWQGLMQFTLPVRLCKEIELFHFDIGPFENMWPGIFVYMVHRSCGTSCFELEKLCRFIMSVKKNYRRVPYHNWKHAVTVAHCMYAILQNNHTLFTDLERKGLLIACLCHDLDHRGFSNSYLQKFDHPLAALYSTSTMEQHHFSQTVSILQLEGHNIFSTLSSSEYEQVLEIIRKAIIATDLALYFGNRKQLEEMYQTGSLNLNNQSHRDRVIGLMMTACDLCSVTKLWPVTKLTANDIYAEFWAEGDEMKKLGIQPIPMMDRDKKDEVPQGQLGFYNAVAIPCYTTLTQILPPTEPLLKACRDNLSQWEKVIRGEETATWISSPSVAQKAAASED
Nature of the assay: Inhibition of PDE 10A (in vitro enzyme inhibition test, [3H]cAMP scintillation proximity assay). The class given is biochemical. Conditions: recombinant full-length PDE 10A expressed in Sf9 insect cells; substrate [5',8-3H] cAMP; 60 min at 20° C. The method, then:
48 h after infection, the cells are harvested and suspended in 20 ml (per 1 l of culture) of lysis buffer (50 mM tris HCl, pH 7.4, 50 mM NaCl, 1 mM MgCl2, 1.5 mM EDTA, 10% glycerol plus 20 μl of Protease Inhibitor Cocktail Set III [CalBiochem, La Jolla, Calif. USA]). The cells are treated with ultrasound at 4° C. for 1 minute and subsequently centrifuged at 10 000 rpm for 30 minutes at 4° C. The supernatant (PDE 10A preparation) was collected and stored at −20° C.
The test substances are dissolved in 100% DMSO for the determination of their in vitro action on PDE 10A and serially diluted. […] 2 μl of the diluted substance solutions in each case are introduced into the hollows of microtiter plates (Isoplate; Wallac Inc., Atlanta, Ga.). Subsequently, 50 μl of a dilution of the PDE 10A preparation described above are added. The dilution of the PDE 10A preparation is chosen such that during the later incubation less than 70% of the substrate is reacted (typical dilution: 1:10 000; dilution buffer: 50 mM tris/HCl pH 7.5, 8.3 mM MgCl2, 1.7 mM EDTA, 0.2% BSA). The substrate, [5′,8-^3H] adenosine 3′,5′-cyclic phosphate (1 μCi/μl; Amersham Pharmacia Biotech., Piscataway, N.J.) is diluted 1:2000 with assay buffer (50 mM tris/HCl pH 7.5, 8.3 mM MgCl2, 1.7 mM EDTA) to a concentration of 0.0005 μCi/μl. The enzyme reaction is finally started by addition of 50 μl (0.025 μCi) of the diluted substrate. The test batches are incubated for 60 min at 20° C. and the reaction is stopped by addition of 25 μl of a suspension containing 18 mg/ml of Yttrium Scintillation Proximity Beads (Amersham Pharmacia Biotech., Piscataway, N.J.). The microtiter plates are sealed using a film and allowed to stand for 60 min at 20° C. Subsequently, the plates are measured for 30 s per hollow in a Microbeta scintillation counter (Wallac Inc., Atlanta, Ga.). IC50 values are determined by means of graphic plotting of the substance concentration against the percentage inhibition.
In general terms: SPA uses beads or plates that emit light when radiolabelled molecules are held near them.
Regarding `COc1cc(Oc2nc(-c3ccc(NC(C)=O)cc3)nn3c(C)nc(C)c23)cc(OC)c1OC` [Example 2, N-{4-[5,7-Dimethyl-4-(3,4,5-trimethoxyphenoxy)imidazo[5,1-f][1,2,4]triazin-2-yl]-phenyl}acetamide], the pIC50 – broadly, the IC50 on a negative log10 scale, so that one unit is a factor of ten – was 7.43. The same measure for `COc1cc(Oc2nc(-c3cccc(NC(C)=O)c3)nn3c(C)nc(C)c23)cc(OC)c1OC` [Example 9, N-{3-[5,7-Dimethyl-4-(3,4,5-trimethoxyphenoxy)imidazo[5,1-f][1,2,4]triazin-2-yl]-phenyl}acetamide]: 7.52.

Take `COc1cc(Nc2nc(-c3cccc(NS(C)(=O)=O)c3)nn3c(C)nc(C)c23)cc(OC)c1OC` [Example 11, N-(3-{5,7-Dimethyl-4-[(3,4,5-trimethoxyphenyl)amino]imidazo[5,1-f][1,2,4]triazin-2-yl}phenyl)methanesulfonamide]: the pIC50 is 7.37. `COc1cc(Nc2nc(-c3ccc(NC=O)cc3)nn3c(C)nc(C)c23)cc(OC)c1OC` [Example 12, 4-{5,7-Dimethyl-4-[(3,4,5-trimethoxyphenyl)amino]imidazo[5,1-f][1,2,4]triazin-2-yl}phenylformamide]: the pIC50 is 8.10. The same measure for `COc1cc(Nc2nc(-c3ccc(NC(=O)CO)cc3)nn3c(C)nc(C)c23)cc(OC)c1OC` [Example 15, N-(4-{5,7-Dimethyl-4-[(3,4,5-trimethoxyphenyl)amino]imidazo[5,1-f][1,2,4]triazin-2-yl}phenyl)-2-hydroxyacetamide]: 8.22.
